From PubChem BioAssay (NCI)
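Values below derive from 48-hour exposures of cells grown in 96-well plates, with endpoints linearly interpolated between the two concentrations bracketing the appropriate inhibition level. TGI is the concentration that stops growth completely.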

Legend:
Assay in all cases: NCI anticancer screen, dose series, 48 h
[1] = system: 786-0 renal
[2] = system: A498 renal
[3] = system: A549 NSCLC
[4] = system: ACHN renal
[5] = system: BT-549 breast
[6] = system: CAKI-1 renal
[7] = system: CCRF-CEM leukemia
[8] = system: COLO 205 colon
[9] = system: DU-145 prostate
[10] = system: EKVX NSCLC
[11] = system: HCC-2998 colon
[12] = system: HCT-116 colon
[13] = system: HCT-15 colon
[14] = system: HOP-62 NSCLC
[15] = system: HS 578T breast
[16] = system: HT29 colon
[17] = system: IGROV1 ovarian
[18] = system: K-562 leukemia
[19] = system: KM12 colon
[20] = system: LOX IMVI melanoma
[21] = system: M14 melanoma
[22] = system: MALME-3M melanoma
[23] = system: MCF7 breast
[24] = system: MDA-MB-231 breast
[25] = system: MDA-MB-435
[26] = system: MDA-N
[27] = system: MOLT-4 leukemia
[28] = system: NCI-H226 lung
[29] = system: NCI-H23 lung
[30] = system: NCI-H460 lung
[31] = system: NCI-H522 lung
[32] = system: NCI/ADR-RES ovarian
[33] = system: OVCAR-3 ovarian
[34] = system: OVCAR-4 ovarian
[35] = system: OVCAR-5 ovarian
[36] = system: OVCAR-8 ovarian
[37] = system: PC-3 prostate
[38] = system: RPMI-8226 leukemia
[39] = system: RXF 393 renal
[40] = system: SF-268 CNS
[41] = system: SF-295 CNS
[42] = system: SK-MEL-2 melanoma
[43] = system: SK-MEL-28 melanoma
[44] = system: SK-MEL-5 melanoma
[45] = system: SK-OV-3 ovarian
[46] = system: SN12C renal
[47] = system: SNB-19 CNS
[48] = system: SNB-75 CNS
[49] = system: SR leukemia
[50] = system: SW-620 colon
[51] = system: T-47D breast
[52] = system: TK-10 renal
[53] = system: U251 CNS
[54] = system: UACC-257 melanoma
[55] = system: UACC-62 melanoma
[56] = system: UO-31 renal
[57] = system: HL-60(TB) leukemia
[58] = system: HOP-92 NSCLC
[59] = system: SF-539 CNS

With `COc1cc(C)c(S(=O)(=O)N(CCCN)OCCCN)c(C)c1C` the TGI [1] was > 100 µM, the TGI [2] was > 100 µM and the TGI [3] was > 100 µM. The TGI [4] was > 100 µM, the TGI [5] was 66.5 µM and the TGI [6] was > 100 µM. For the same molecule, the TGI [7] was > 100 µM, the TGI [8] was 41.2 µM and the TGI [9] was > 100 µM. For the same molecule, the TGI [10] was > 100 µM, the TGI [11] was 57.1 µM and the TGI [12] was > 100 µM. The TGI [13] was > 100 µM, the TGI [14] was > 100 µM and the TGI [15] was 65.2 µM. For the same molecule, the TGI [16] was > 100 µM, the TGI [17] was > 100 µM and the TGI [18] was 31.7 µM. For the same molecule, the TGI [19] was > 100 µM, the TGI [20] was 84.6 µM and the TGI [21] was 65.2 µM. The TGI [22] was 42.8 µM, the TGI [23] was 53.1 µM and the TGI [24] was 80.8 µM. For the same molecule, the TGI [25] was > 100 µM, the TGI [26] was > 100 µM and the TGI [27] was 31.4 µM. The TGI [28] was > 100 µM, the TGI [29] was > 100 µM and the TGI [30] was > 100 µM. The TGI [31] was 51.7 µM, the TGI [32] was > 100 µM and the TGI [33] was > 100 µM. For the same molecule, the TGI [34] was > 100 µM, the TGI [35] was > 100 µM and the TGI [36] was > 100 µM. The TGI [37] was 77.3 µM, the TGI [38] was 49 µM and the TGI [39] was 90 µM. The TGI [40] was > 100 µM, the TGI [41] was > 100 µM and the TGI [42] was 51.5 µM. For the same molecule, the TGI [43] was > 100 µM, the TGI [44] was 53 µM and the TGI [45] was > 100 µM. For the same molecule, the TGI [46] was > 100 µM, the TGI [47] was > 100 µM and the TGI [48] was > 100 µM. For the same molecule, the TGI [49] was 38.6 µM, the TGI [50] was > 100 µM and the TGI [51] was > 100 µM. For the same molecule, the TGI [52] was > 100 µM, the TGI [53] was > 100 µM and the TGI [54] was 62.3 µM. For the same molecule, the TGI [55] was > 100 µM and the TGI [56] was > 100 µM.

`CC1=CCC(=O)[C@]2(C)C(CC(=O)O)[C@]3(C)C4=C(C)C(c5ccoc5)C[C@@H]4O[C@@H]3[C@H](O)[C@@H]12` (some centres undefined) was tested, and the TGI [1] was > 100 µM, the TGI [2] was > 100 µM and the TGI [3] was > 100 µM. For the same molecule, the TGI [4] was > 100 µM, the TGI [5] was > 100 µM and the TGI [6] was > 100 µM. The TGI [7] was > 100 µM, the TGI [8] was > 100 µM and the TGI [9] was > 100 µM. For the same molecule, the TGI [10] was > 100 µM, the TGI [11] was > 100 µM and the TGI [12] was > 100 µM. The TGI [13] was > 100 µM, the TGI [57] was > 100 µM and the TGI [58] was > 100 µM. For the same molecule, the TGI [15] was > 100 µM, the TGI [17] was > 100 µM and the TGI [19] was > 100 µM. The TGI [20] was > 100 µM, the TGI [21] was > 100 µM and the TGI [22] was > 100 µM. For the same molecule, the TGI [23] was > 100 µM, the TGI [24] was > 100 µM and the TGI [25] was > 100 µM. The TGI [26] was > 100 µM, the TGI [27] was > 100 µM and the TGI [29] was > 100 µM. For the same molecule, the TGI [30] was > 100 µM, the TGI [31] was > 100 µM and the TGI [32] was > 100 µM. The TGI [33] was > 100 µM, the TGI [34] was > 100 µM and the TGI [35] was > 100 µM. The TGI [36] was > 100 µM, the TGI [37] was > 100 µM and the TGI [38] was > 100 µM. The TGI [40] was > 100 µM, the TGI [41] was > 100 µM and the TGI [59] was > 100 µM. The TGI [42] was > 100 µM, the TGI [43] was > 100 µM and the TGI [44] was > 100 µM. The TGI [45] was > 100 µM, the TGI [46] was > 100 µM and the TGI [47] was > 100 µM. For the same molecule, the TGI [48] was > 100 µM, the TGI [50] was > 100 µM and the TGI [51] was > 100 µM. For the same molecule, the TGI [52] was > 100 µM, the TGI [53] was > 100 µM and the TGI [54] was > 100 µM. The TGI [55] was > 100 µM and the TGI [56] was > 100 µM.
